What all share (test): NCI-60 cell line screen, 48 h
The test system of assay [1] is HCC-2998 colon.
Assay [2] has as its system UACC-62 melanoma.
Assay [3] concerns NCI-H460 lung.
Assay [4] has as its system SK-OV-3 ovarian.
Assay [5] deals with K-562 leukemia.
Assay [6] relates to A549 NSCLC.
For assay [7], the system named is SK-MEL-28 melanoma.
Assay [8] deals with LOX IMVI melanoma.
Assay [9] has as its system SW-620 colon.
Assay [10] relates to SNB-75 CNS.
Assay [11] deals with CCRF-CEM leukemia.
Assay [12] deals with SK-MEL-2 melanoma.
Assay [13] concerns OVCAR-8 ovarian.
Assay [14] deals with COLO 205 colon.
Assay [15] has as its system KM12 colon.
Assay [16] relates to BT-549 breast.
Assay [17] concerns M14 melanoma.
In assay [18] the test system is PC-3 prostate.
Assay [19] relates to HS 578T breast.
Assay [20] deals with T-47D breast.

TGI data for six compounds are collected here from PubChem BioAssay (NCI).

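Tested at 5 concentrations; 48 h exposure; 96-well plates; endpoints linearly interpolated, else capped at highest concentration. TGI denotes the concentration required for complete inhibition of growth.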 Some results are limits rather than exact numbers.

Take `O=P1(Oc2ccc(Cl)cc2Cl)Oc2ccc3ccccc3c2-c2c(ccc3ccccc23)O1`: the TGI is 61.4 µM in [1]; 70.4 µM in assay [2]; above 90.6 µM in assay [3]; above 100 µM in assay [4]; above 100 µM in [5]; above 100 µM in assay [6]. For the same compound, the TGI is above 85.4 µM in [7]; 53.9 µM in assay [8]; above 100 µM in assay [9]; 85 µM in assay [10]; above 89.6 µM in assay [11]; 36 µM in assay [12]. In addition, the TGI is above 100 µM in [13], above 100 µM in assay [14] and above 90.4 µM in assay [15].
As to `O=[N+]([O-])c1ccc(N=Nc2c(O)ccc3ccccc23)c([N+](=O)[O-])c1`, the TGI in [16], in assay [17], in [1], in assay [2], in assay [3] and in assay [4] was above 100 µM throughout. Also, the TGI in assay [5] is above 71.4 µM; in [6], above 100 µM; in assay [7], above 100 µM; in assay [8] it was above 100 µM; in assay [9], above 100 µM; in assay [10] it was above 100 µM. Moreover, the TGI in assay [11] is above 64.6 µM; in [12] it was above 100 µM; in [18], above 100 µM; in assay [19], above 100 µM; in [13], above 100 µM; in assay [14], above 100 µM. Further, the TGI in assay [20] and in assay [15] was above 100 µM in each case.
Regarding `O=C(Nc1ccccc1)c1cc2ccccc2c(N=Nc2ccc([N+](=O)[O-])cc2)c1O`, the TGI in assay [16], in [17], in [2], in [4], in assay [5] and in assay [6] was above 100 µM in each case. Besides, the TGI in assay [7] was above 100 µM; in assay [8], above 100 µM; in [9] it was above 100 µM; in assay [10], above 100 µM; in assay [11], 46.4 µM; in [12] it was above 100 µM. Further, the TGI in assay [18], in assay [19], in assay [13], in [14], in assay [20] and in assay [15] was above 100 µM in each case.
Consider `COc1ccc2nccc(SCC(=O)O)c2c1`, for which the TGI in assay [16], in assay [17], in assay [2], in assay [3], in assay [5] and in [6] was above 100 µM throughout. In addition, the TGI in assay [7], in assay [8], in assay [9], in [11], in assay [12] and in assay [18] was above 100 µM in each case. The TGI in assay [19], in [13], in [20] and in [15] was above 100 µM in each case.
As for `CCCC[C@H]1[C@@H](OCOc2ccccc2)COC(=O)N1[C@H](C)c1ccccc1`, the TGI was 44.4 µM in assay [16]; 31.2 µM in assay [17]; 35.8 µM in assay [1]; 30.2 µM in assay [2]; 32.1 µM in assay [3]; above 56.1 µM in assay [4]. Besides, the TGI was above 100 µM in assay [5]; 28.4 µM in [6]; 71.1 µM in assay [7]; 70.7 µM in assay [8]; above 100 µM in assay [9]; 26.9 µM in [10]. In addition, the TGI was 68.8 µM in assay [11]; 33.3 µM in assay [12]; 23.4 µM in [18]; 52.8 µM in [19]; above 100 µM in assay [13]; above 100 µM in assay [14]. The figures for the TGI in assay [20] and in assay [15] were above 40.4 µM and 33.5 µM, respectively.
Consider `COc1ccc(C2SCC(=O)N2NC(=O)c2ccncc2)cc1F` (stereo unspecified), for which the TGI in assay [17], in assay [1], in assay [3], in [4], in [6] and in assay [7] was above 100 µM each time. Besides, the TGI in assay [8], in [9], in [10], in assay [12], in assay [14] and in [15] was above 100 µM each time.
